Experimental data taken from patent US20060270727A1, “Small molecule therapeutics and uses therefor” (priority 2005, published 2006).

Assays:
[1] = tested on: frataxin mRNA in GM15851 normal lymphoid cell line; assay: qRT-PCR of frataxin mRNA, normal cell line; assay type: cell-based, human
Excerpt: GAA Specific Polyamides Up Regulate Frataxin mRNA and Protein. To assess whether polyamides alleviate transcription inhibition caused by expanded GAA repeats in the frataxin gene, quantitative real time/reverse transcriptase PCR (qRT-PCR) was used to monitor frataxin mRNA levels in the GM15850 and GM15851 lymphoid cell lines described above; levels of glyceraldehyde 3-phosphate dehydrogenase (GAPDH) mRNA were used as an internal control for each RNA sample; see Example 8. No differences in GAPDH were found between the two cell lines. […] No changes in frataxin mRNA levels were observed on shorter incubation times.
Cell Culture. […] Cell growth and morphology were monitored by phase contrast microscopy and viability by trypan blue exclusion and an ATP assay (ApoSENSOR™, BioVision). […]
Real-Time Quantitative RT-PCR. Real-time quantitative RT-PCR (qRT-PCR) analysis was performed essentially as previously described (Chuma, et al., 2003, Hepatology 37:198-207), using the following primers for the frataxin gene: […]
RNA was standardized by quantification of GAPDH mRNA (Pattyn et al., 2003, Nucleic Acids Res. 31:122-123), and all values are expressed relative to GAPDH. qRT-PCR was performed using iScript One-Step RT-PCR kit with SYBR green (Biorad). Statistical analysis was performed on three independent quantitative RT-PCR experiments for each RNA sample.

[2] = tested on: GM15851 normal lymphoid cells; assay: DNA microarray of global gene expression, normal cells; assay type: cell-based, human; conditions: for number of genes with affected mRNA levels: P≦0.005
Description: Effects of Polyamides on Global Gene Expression. DNA microarray analyses (see Example 10) were performed with RNA isolated from GM15850 FRDA and GM15851 normal lymphoid cells that were either untreated or treated with polyamides FA1 (at 1 and 2 μM) or FA2 (at 2 μM) for 7 days on Affymetrix Human Genome U133 Plus 2.0 GeneChips®. These chips contain […] oligonucleotides representing all or nearly all of the genes in the human genome). Experiments were conducted according to manufacturer guidelines. […] Although more genes were judged affected by FA1 at 1 μM than at 2 μM, this difference is largely due to genes whose mRNA levels change by less than […] in either direction, and thus are not highly significant. At 2 μM FA1, 15 genes were increased in expression by greater than 50% and one gene was decreased by 45%. […] For GM15851 cells, two genes were up regulated by FA1, and no genes were down regulated. (Note that the probability that the genes affected in GM15851 cells would be judged significant by chance at P≦0.005 is 0.8-1.0, based on analysis with BRB ArrayTools). […] Strikingly, binding sites for FA1 (5′-AAGAAGAAG-3′, SEQ ID NO: ______) are present in 18/20 genes whose mRNA levels are increased by 1.2-fold or greater in GM15850 cells, although this sequence would be expected to appear at random only once per 262,000 bp in genomic DNA.
DNA Microarrays. FRDA and control lymphoid cells (i.e., lines GM15850 and GM15851, respectively) were incubated with polyamides FA1 (at 1 or 2 μM) or FA2 (at 2 μM), or in the absence of polyamide, in triplicate for seven days prior to RNA purification and microarray analysis. Affymetrix U133A Plus 2.0 GeneChips® were hybridized in groups of eight for each of the three replicates. Raw GeneChip® data were normalized with RMAExpress (Bolstad et al., 2003, Bioinformatics 19:185-193) and the normalized data was filtered to remove probesets called absent on 24 of 24 chips from class comparisons. The Affymetrix probeset-level data was imported to BRB Arraytools (v3.3.0 Beta 3a) selecting the U133 chips used in the experiment and leaving all filters off. For class comparisons between groups of arrays, unpaired samples were used and the random variance model was selected, with the univariate significance threshold set to 0.005. The restrictions for the univariate test were maintained as the default values of 10 for the maximum number of false discovered genes, 0.1 for the maximum proportion of false discoveries, and a 90% confidence level. Because of poor data correlation in one set of replicates, class comparisons were performed using all chips for the control group versus two of the three replicates for the treatment group (i.e., five groups are the minimum number required for class comparisons).

[3] = tested on: sticky DNA in plasmid pRW4886, two tracts of (GAA)176; assay: Sticky DNA disruption, EcoNI digestion and agarose gel; assay type: biochemical; conditions: 37° C., 1 hr
Description: Influence of Polyamides on Sticky DNA Conformation. Plasmid pRW4886, which contains two tracts of (GAA)176 (SEQ ID NO: ______) in a direct repeat orientation (Vetcher et al., 2002b, Id)., and forms sticky DNA, was treated with polyamides at concentrations of 0-50 μM at 37° C. for 1 hr. Restriction digestion with EcoNI following the polyamide incubation enabled visualization of the presence or absence of an EcoNI cleaved sticky DNA band that runs with decreased mobility compared to the linearized plasmid on 1% agarose gels. Quantitation was by densitometric analysis using Fluor Chem version 3.04 (Alpha Innotech Corp).
The capacity of sequence-specific polyamides to disrupt the intramolecular sticky DNA structure formed by GAA repeat tracts was investigated. Plasmids harboring the sticky DNA structure are visualized by gel electrophoresis after restriction endonuclease cleavage, by methods well known in the art. […] Plasmid pRW4886, which contains two tracts of (GAA)176 (SEQ ID NO: ______) in a direct repeat orientation (Vetcher et al., 2002b, Id.), was incubated with each of polyamides FA1, FA2, FA3 and FA4 at concentrations ranging from 0-50 μM. The polyamide-bound DNA was then digested with EcoNI and subjected to electrophoresis on 1% agarose gels to determine the amount of EcoNI cleaved sticky DNA retarded band present. Incubation of pRW4886 DNA with FA3 shifted the equilibrium from a maximum amount of sticky DNA to a complete loss of the EcoNI cleaved sticky DNA retarded band at a concentration of 50 nM. […] For FA1, a 1 μM concentration was needed to dissociate the DNA-DNA structure-forming region. […] Since sticky DNA inhibits transcription (Ohshima et al., Id.; Sakamoto et al., 2001, J. Biol. Chem. 276:27171-27177), and since the polyamides destabilize this conformation by shifting the structural equilibrium to duplex B-type DNA, it is highly likely that the increases in frataxin mRNA observed with polyamide FA1 are due to this structural transition.

Row | SMILES | effect on frataxin mRNA levels, in words [1] | genes down regulated [2] | genes up regulated [2] | number of genes with affected mRNA levels ([2]; 7 days) | concentration needed to affect or dissociate sticky DNA [3] [µM] | transcript levels for frataxin (microarray) ([2]; 2 μM, 7 days)
1 | CN(C)CCCNC(=O)CCNC(=O)c1nc(NC(=O)CCNC(=O)c2cc(NC(=O)c3nc(NC(=O)CCNC(=O)c4cc(NC(=O)c5nccn5C)cn4C)cn3C)cn2C)cn1C [FA1, ImPyβImPyβImβDp] | did not change frataxin mRNA levels | no genes | two genes | two genes | 1 | –
2 | CN(C)CCCNC(=O)CCNC(=O)c1cc(NC(=O)CCNC(=O)c2nc(NC(=O)c3nc(NC(=O)CCNC(=O)c4cc(NC(=O)c5nccn5C)cn4C)cn3C)cn2C)cn1C [FA2, ImPyβImImβPyβDp] | no change in frataxin mRNA | – | – | one gene | > 100 | not changed
